This note sets out measurements from US6469127B1, “Polycarbonate resin having low tendency of releasing environmental endocrine disruptors” (Space Environmental Technology Company, Inc,, priority 1999, dated 2002).

The experiment deals with T1, Estrogen Receptor (Homo sapiens, UniProt P03372).
T1 sequence (P03372 1-595): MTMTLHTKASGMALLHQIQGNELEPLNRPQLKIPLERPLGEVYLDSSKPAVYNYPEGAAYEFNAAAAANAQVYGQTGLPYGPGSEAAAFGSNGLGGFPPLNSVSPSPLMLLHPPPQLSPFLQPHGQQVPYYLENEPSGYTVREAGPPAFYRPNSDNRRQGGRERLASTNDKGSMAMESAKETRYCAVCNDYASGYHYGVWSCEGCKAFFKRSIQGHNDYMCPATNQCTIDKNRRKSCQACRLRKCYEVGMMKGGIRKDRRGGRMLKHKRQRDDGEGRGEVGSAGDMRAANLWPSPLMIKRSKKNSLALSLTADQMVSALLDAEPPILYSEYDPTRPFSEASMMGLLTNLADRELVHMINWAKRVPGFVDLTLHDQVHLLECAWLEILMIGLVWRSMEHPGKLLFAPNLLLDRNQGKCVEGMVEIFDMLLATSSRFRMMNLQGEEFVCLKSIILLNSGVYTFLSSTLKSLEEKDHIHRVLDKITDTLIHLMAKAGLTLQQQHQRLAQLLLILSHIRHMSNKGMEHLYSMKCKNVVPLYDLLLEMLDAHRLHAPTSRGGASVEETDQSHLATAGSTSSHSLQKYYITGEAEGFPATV
Description: Tendency to link to estrogen receptor (IC50 of bisphenols and reference compounds, Table 1). In kind it is binding. Conditions: concentration required to substitute 50% of genuine hormone linked to receptor.

As to `CCCCCCCCCc1ccc(O)cc1` [4-Nonylphenol], the midpoint of inhibition, the IC50, lay at 3.9 µM.

Usually IC50 stands for the concentration that gives 50% inhibition. Lower therefore signals higher potency.
